BindingDB's records for doi:10.1021/acs.jmedchem.3c01130 (University of Toledo College of Medicine and Life Sciences, 2023)
pIC50: −log10 of the molar value.

Biological target: Transcription factor Sp1 (Homo sapiens, UniProt P08047)
Experiment: Inhibition of human SP1 transfected in PC-3 cells by renilla luciferase reporter gene assay

Sequence of Transcription factor Sp1 (P08047 whole entry): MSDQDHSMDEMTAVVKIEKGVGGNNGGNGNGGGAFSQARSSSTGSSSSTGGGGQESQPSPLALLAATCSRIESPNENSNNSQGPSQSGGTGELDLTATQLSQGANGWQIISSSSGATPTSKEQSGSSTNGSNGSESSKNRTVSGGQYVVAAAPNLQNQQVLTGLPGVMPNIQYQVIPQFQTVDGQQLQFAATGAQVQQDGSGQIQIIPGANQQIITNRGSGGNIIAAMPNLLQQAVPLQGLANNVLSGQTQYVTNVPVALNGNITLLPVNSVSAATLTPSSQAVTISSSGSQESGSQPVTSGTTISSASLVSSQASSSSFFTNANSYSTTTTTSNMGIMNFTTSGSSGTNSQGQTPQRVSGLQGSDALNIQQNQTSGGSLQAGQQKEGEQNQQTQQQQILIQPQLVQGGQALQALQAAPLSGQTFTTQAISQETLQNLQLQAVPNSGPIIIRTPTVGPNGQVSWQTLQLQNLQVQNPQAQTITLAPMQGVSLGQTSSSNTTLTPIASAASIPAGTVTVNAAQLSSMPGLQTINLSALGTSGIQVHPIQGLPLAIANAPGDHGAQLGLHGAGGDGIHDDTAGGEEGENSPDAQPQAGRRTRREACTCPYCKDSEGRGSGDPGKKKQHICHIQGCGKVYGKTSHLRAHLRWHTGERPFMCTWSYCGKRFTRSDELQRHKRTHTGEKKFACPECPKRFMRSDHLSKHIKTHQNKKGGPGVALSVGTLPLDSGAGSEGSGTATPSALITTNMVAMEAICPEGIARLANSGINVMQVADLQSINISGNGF

pIC50: 8.10
SMILES: COCC[n+]1c2c(n(Cc3cnccn3)c1C)C(=O)c1ccccc1C2=O [Sepantronium Bromide]
